The source of these data is paper PMC6099591, “(2E,5E)-2,5-Bis(3-hydroxy-4-methoxybenzylidene) cyclopentanone Exerts Anti-Melanogenesis and Anti-Wrinkle Activities in B16F10 Melanoma and Hs27 Fibroblast Cells” (Molecules : A Journal of Synthetic Chemistry and Natural …, 2018).

In series [1] the target is Mushroom tyrosinase (EC 1.14.18.1) (Agaricus bisporus, UniProt C7FF04). The experiment in a line: Kinetic analysis of tyrosinase inhibition (Lineweaver-Burk and Dixon plots). To be noted: Lineweaver-Burk plot. It counts as biochemical. The text has this:
Furthermore, the mechanism responsible for tyrosinase inhibition by BHCP was investigated by enzyme kinetic analysis in the present study (Table 1 and Figure 2). Lineweaver–Burk plots were drawn using the data obtained from the kinetic studies, and the inhibition constant (Ki) was obtained from the Dixon plots. The Lineweaver–Burk double reciprocal plots indicated competitive-type inhibition. […] Moreover, intercepts on the x-axis of Dixon plots are commonly used to determine the types of enzyme inhibition constants (Ki) for an enzyme–inhibitor complex, where the value of the x-axis indicates the value of −Ki.
Figure 2 Lineweaver–Burk (a,c) and Dixon (b,d) plots for tyrosinase enzyme inhibition by BHCP. […]
To determine the kinetic mechanisms, two kinetic methods (Lineweaver–Burk and Dixon plots) were complementarily used. For the Lineweaver–Burk double reciprocal plots (a plot of 1/enzyme velocity (1/V) versus 1/substrate concentration (1/[S])), the inhibition type was determined using various concentrations of L-tyrosine (1, 2, and 4 mM) and L-DOPA (0.5, 1, and 2 mM) as substrates in the presence of different concentrations of BHCP. […]

The subject of series [2] is B16F10 melanoma cells. The experiment in a line: Cell viability, EZ-Cytox assay, B16F10. It counts as cell-based, murine. Particulars: up to 10 µM, 48 h. The protocol: (§1) Figure 3 Cell viability of BHCP on B16F10 melanoma (a) and Hs27 fibroblast cells (b). Cells were treated with various concentrations (0–10 μM) of BHCP for 24 h and 48 h, respectively, and cell viability was measured by EZ-Cytox assay.
(§2) The viability of cells was assessed using the EZ-Cytox kit assay. In brief, B16F10 cells and Hs27 fibroblasts were seeded into a 96-well plate at a density of 1 × 10^4 cells/well and incubated at 37 °C for 24 h. The cells were fed fresh, serum-free DMEM that contained different concentrations (0, 1, 2, 5, and 10 µM) of BHCP, and incubated for 24 and 48 h. Subsequently, 10 μL of EZ-Cytox solution was loaded into each well and the cells were incubated for 2–4 h. The absorbance measurement of cells in the absence of any treatment was regarded as 100% cell survival. Each treatment was performed in triplicate and each experiment was repeated three times.

A further series deals with Hs27 fibroblast cells. The experiment in a line: Cell viability, EZ-Cytox assay, Hs27. The format is cell-based, human. Particulars: up to 10 µM, 48 h. The protocol:
as §1, §2

The test system of series [3] is B16F10 melanoma cells. The experiment in a line: Melanin content in α-MSH-induced B16F10 cells. The format is cell-based, murine. Particulars: 24 h pretreatment then α-MSH (5 µM) 48 h, α-MSH only control 186%. The protocol:
(§3) Figure 4 Inhibition of melanin contents (a) and cellular tyrosinase activity (b) of BHCP on B16F10 melanoma cells. […] Melanin content of the pellet was evaluated at 405 nm (a); intracellular tyrosinase activity was determined with L-DOPA as the substrate, and the absorbance of L-DOPA chrome was read at 492 nm (b). Data are expressed as mean ± S.E.M of three independent experiments. One-way ANOVA was used to determine the significances of differences: ^# p < 0.05 compared to the control group without α-MSH treatment. ** p < 0.01 and * p < 0.05 compared to the α-MSH-treated control group.
The effect of BHCP on α-MSH-induced melanogenesis in B16F10 cells was based on a previously used method with slight modifications. Briefly, B16F10 cells (5 × 10^4 cells/well) in 6-well plates were allowed to grow to 70–80% confluence. […] After treatment, the cells were washed twice with ice-cold PBS, dissolved in 90 µL 1 M NaOH solution including DMSO (5%) at 60 °C for 1 h, and the absorbance was measured at 405 nm with a microplate spectrophotometer (TECAN, Salzburg, Austria). To measure the amount of melanin in the experiment, the rate of inhibition in the treatment groups were calculated from the absorbance of the known concentrations of synthetic melanin, which were corrected to the total amount of protein that was present in the supernatant of the cell lysates. The absorbance of untreated cells was measured in triplicate.

The test system of series [4] is cellular tyrosinase in B16F10 melanoma cells. The experiment in a line: Cellular tyrosinase activity assay in α-MSH-induced B16F10 cells. It counts as cell-based, murine. To be noted: 24 h pretreatment then α-MSH (5 µM) 48 h, α-MSH only control 181%. The protocol:
as §3
Cellular tyrosinase activity assay was performed by measuring the rate of oxidation of L-DOPA [35]. B16F10 cells at a density of 5 × 10^4/cells were placed in 6-well dishes and incubated overnight. […] The cells were washed with PBS and lysed in a solution containing 100 µL of 50 mM phosphate buffer (pH 6.5), 0.1 mM phenylmethylsulfonylfluoride (PMSF), and 1% Triton X-100. Then, the cells were placed in a deep freezer machine (−80 °C) for 30 min. After defrosting the cells, the cellular extracts were purified by centrifugation at 12,000 rpm for 30 min at 4 °C. A total of 80 µL the supernatant and 20 µL of L-DOPA (2 mg/mL) were added to a 96-well plate, and the absorbance at a wavelength of 492 nm was measured every 10 min during 1 h at 37 °C with an ELISA plate reader (TECAN, Salzburg, Austria).

Another series deals with tyrosinase. The experiment in a line: Western blot, tyrosinase protein level in α-MSH-stimulated B16F10 cells. Particulars: 1 and 10 µM, 24 h, then α-MSH (5 µM) 48 h; normalized by β-actin. The format is cell-based, murine. The method, then: (§4) Figure 5 Effects of BHCP on the expression levels of phosphorylation of CREB, MITF, and tyrosinase in α-MSH-stimulated B16F10 melanoma cells. Cells were preincubated with or without 1 and 10 μM BHCP for 24 h and were stimulated with α-MSH (5 μM) for an additional 48 h. Harvested cells were lysed and then examined for the expression levels of p-CREB, CREB, MITF, and tyrosinase by Western blotting (a); The protein levels of tyrosinase (b); MITF (c); and p-CREB (d) were quantitated with CS analyzer software. Tyrosinase, MITF, and p-CREB protein levels were normalized by β-actin. Data are expressed as mean ± S.E.M. of three independent experiments. ^# p < 0.05 versus untreated control; * p < 0.05 versus α-MSH stimulation.
(§5) Lysate samples were boiled for 10 min in gel-loading buffer (125 mM Tris-HCl, 4% sodium dodecyl sulfate (SDS), 10% 2-mercaptoethanol, and 0.2% bromophenol blue; pH 6.8) at a volume ratio of 1:1. The total protein equivalents for each sample were separated by SDS-polyacrylamide gel electrophoresis (PAGE) using acrylamide gels as based on the procedure described by Laemmli and transferred to PVDF membranes at 80 V for 2 h using the wet-transfer system. […] Antibody labeling was detected by enhanced chemiluminescence in accordance with the manufacturer’s instructions. Protein quantitation was performed using the Davinch-Chemi TM. […]
Background: Immunoblotting shows a protein as a band on a membrane.

The subject of a further series is MITF. The experiment in a line: Western blot, MITF protein level in α-MSH-stimulated B16F10 cells. It counts as cell-based, murine. To be noted: 1 and 10 µM, 24 h, then α-MSH (5 µM) 48 h; normalized by β-actin. The method, then: as §4, §5
A further series deals with p-CREB. The experiment in a line: Western blot, phosphorylation of CREB in α-MSH-stimulated B16F10 cells. It counts as cell-based, murine. Particulars: 1 and 10 µM, 24 h, then α-MSH (5 µM) 48 h. The method, then:
as §4, §5

A further series relates to p-p65 (Ser536). The experiment in a line: Western blot, nuclear p-p65 (Ser536) in UV-induced Hs27 cells. To be noted: 1 and 10 µM, 24 h, then UV (50 mJ/cm2) 24 h; normalized to TFIIB. It counts as cell-based, human. The protocol:
(§6) Figure 6 Effects of BHCP on the expression levels of p-p65 (Ser536) in UV-induced Hs27 human fibroblast cells. Cells were preincubated with or without 1 and 10 μM BHCP for 24 h and were stimulated with UV (50 mJ/cm^2) for an additional 24 h. Nuclear protein levels of p-p65 (Ser536) were determined by Western blotting (a); After normalization to TFIIB, relative ratios were quantitated with CS analyzer software (b); Cytosol protein levels of p65 was determined by Western blotting (c); After normalization to β-actin, ratios were quantitated with CS analyzer software (d). Data are expressed as mean ± S.E.M. of three independent experiments. ^# p < 0.05 versus untreated control; * p < 0.05 and ** p < 0.01 versus […].
(§7) The Hs27 cells were washed with ice-cold PBS and harvested. […]
(§8) Lysate samples were boiled for 10 min in gel-loading buffer (125 mM Tris-HCl, 4% sodium dodecyl sulfate (SDS), 10% 2-mercaptoethanol, and 0.2% bromophenol blue; pH 6.8) at a volume ratio of 1:1. […] Antibody labeling was detected by enhanced chemiluminescence in accordance with the manufacturer’s instructions. Protein quantitation was performed using the Davinch-Chemi TM. […]

The next series relates to p65. The experiment in a line: Western blot, cytosol p65 in UV-induced Hs27 cells. It counts as cell-based, human. Particulars: 1 and 10 µM, 24 h, then UV (50 mJ/cm2) 24 h; normalized to β-actin. The method, then:
as §6, §7, §8

The next series has as its system MMP-1. The experiment in a line: Western blot, MMP-1 expression in UV-induced Hs27 cells. The format is cell-based, human. To be noted: 1 and 10 µM, 24 h, then UV (50 mJ/cm2) 24 h. The protocol:
(§9) Figure 7 Effects of BHCP on the expression levels of MMP-1, MMP-9, MMP-12, and MMP-13 in UV-induced Hs27 human fibroblast cells. Cells were preincubated with or without 1 and 10 μM BHCP for 24 h and were stimulated with UV (50 mJ/cm^2) for an additional 24 h. Harvested cells were lysed and then examined for the expression levels of MMP-1, MMP-9, MMP-12, and MMP-13 by Western blotting (a); The protein levels of MMP-1 (b); MMP-9 (c); MMP-12 (d); and MMP-13 (e) were quantitated with CS analyzer software. MMP-1, MMP-9, MMP-12, and MMP-13 protein levels were normalized by β-actin. Data are expressed as mean ± S.E.M. of three independent experiments. ^# p < 0.05 versus untreated control; * p < 0.05 versus UV stimulation.
as §5

Another series has as its system MMP-9. The experiment in a line: Western blot, MMP-9 expression in UV-induced Hs27 cells. The format is cell-based, human. Particulars: 1 and 10 µM, 24 h, then UV (50 mJ/cm2) 24 h. The method, then: as §9, §5
Another series relates to MMP-12. The experiment in a line: Western blot, MMP-12 expression in UV-induced Hs27 cells. To be noted: 1 and 10 µM, 24 h, then UV (50 mJ/cm2) 24 h. It counts as cell-based, human. The protocol:
as §9, §5

The test system of another series is MMP-13. The experiment in a line: Western blot, MMP-13 expression in UV-induced Hs27 cells. It counts as cell-based, human. To be noted: 1 and 10 µM, 24 h, then UV (50 mJ/cm2) 24 h. The protocol:
as §9, §5

Sequence of Mushroom tyrosinase (EC 1.14.18.1) (G1K3P4 entry or part of it): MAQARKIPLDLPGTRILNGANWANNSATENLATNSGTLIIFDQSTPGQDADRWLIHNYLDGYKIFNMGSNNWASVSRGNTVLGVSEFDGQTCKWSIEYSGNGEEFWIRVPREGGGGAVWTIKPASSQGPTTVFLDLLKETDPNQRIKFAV
Sequence of Mushroom tyrosinase (EC 1.14.18.1) (C7FF04 1-392): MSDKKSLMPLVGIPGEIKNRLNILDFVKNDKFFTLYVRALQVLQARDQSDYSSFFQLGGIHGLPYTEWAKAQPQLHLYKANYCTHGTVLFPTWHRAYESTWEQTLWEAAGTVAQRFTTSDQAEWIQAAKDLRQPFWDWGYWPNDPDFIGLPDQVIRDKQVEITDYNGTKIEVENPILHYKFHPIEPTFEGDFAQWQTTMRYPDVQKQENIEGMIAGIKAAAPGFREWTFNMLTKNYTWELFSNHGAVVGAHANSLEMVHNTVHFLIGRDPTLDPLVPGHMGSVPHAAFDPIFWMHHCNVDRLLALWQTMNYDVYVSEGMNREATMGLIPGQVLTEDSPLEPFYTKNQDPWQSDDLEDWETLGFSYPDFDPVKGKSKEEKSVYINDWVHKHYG

Turning to `COc1ccc(/C=C2\CC/C(=C\c3ccc(OC)c(O)c3)C2=O)cc1O` [BHCP, (2E,5E)-2,5-bis(3-hydroxy-4-methoxybenzylidene)cyclopentanone], the “Inhibition Type (L-DOPA)” value in [1] (substrate L-DOPA) is listed as “competitive inhibitor”. Besides, the “Inhibition Type (L-Tyrosine)” value in [1] (substrate L-tyrosine) is on record as “competitive inhibitor”. For the same compound, the “Cell viability (survival) of B16F10 cells” value in the series on B16F10 melanoma cells [2] is “did not reduce the survival”. Also, in the series with Hs27 fibroblast cells, the “Cell viability (survival) of Hs27 cells” value is “did not reduce the survival”. For the same compound, the Melanin content in the series on B16F10 melanoma cells [3] (1 µM) is 113%; in the series on B16F10 melanoma cells [3] (5 µM), 106%; in the series on B16F10 melanoma cells [3] (10 µM), 102%. Also, the results for the Cellular tyrosinase activity in series [4] (1 µM), in [4] (5 µM) and in [4] (10 µM) were 120%, 116% and 105%, respectively. For the same compound, in the series with tyrosinase, the Tyrosinase protein level entry is “decreased these protein levels”. Besides, the MITF protein level result in the series on MITF was “decreased these protein levels”. Also, in the series with p-CREB, the “Phosphorylation of CREB” value is on record as “significantly suppressed”. Besides, the “Nucleus p-p65 (Ser536) protein level” value in the series with p-p65 (Ser536) is “decreased”. For the same compound, in the series with p65, the “Total p65 in the cytoplasm” value is recorded as “restored”. In addition, the MMP-1 expression entry in the series on MMP-1 is listed as “decreased expression in a dose-dependent manner”. Further, in the series with MMP-9, the MMP-9 expression entry is “decreased expression in a dose-dependent manner”. Moreover, the MMP-12 expression entry in the series on MMP-12 is “decreased expression in a dose-dependent manner”. In addition, in the series on MMP-13, the MMP-13 expression result was “decreased expression in a dose-dependent manner”.

In the case of `O=c1cc(CO)occ1O` [Kojic acid, reference compound], the Cellular tyrosinase activity in series [4] amounted to 131%.
